Data from ChEMBL document CHEMBL3045180, “Synthesis of novel 4,6-diaryl-2-aminopyrimidines as potential antiplasmodial agents” (Med Chem Res, 2013).
Converted amounts (≈) assume the structure as drawn.

Experiments:
[1] = Haemolytic activity against Homo sapiens (human) RBC at >25 ug/ml up to 24 hr; assay type: ADME, cell-based; settings: erythrocyte
Plasmodium falciparum = test: Antiplasmodial activity against chloroquine-sensitive Plasmodium falciparum MRC 20 infected in human red blood cells measured up to 24 hr; assay type: functional, organism-based; settings: MRC 20, 24 h
[2] = Haemolytic activity against Homo sapiens (human) RBC at >12.5 ug/ml up to 24 hr; assay type: ADME, cell-based; settings: erythrocyte
[3] = Haemolytic activity against Homo sapiens (human) RBC at >50 ug/ml up to 24 hr; assay type: ADME, cell-based; settings: erythrocyte

Structure (SMILES)	Activity [1]	IC50 (Plasmodium falciparum) [µg/mL]	Activity [2]	Activity [3]
COc1ccc(-c2cc(-c3ccc(C)cc3)nc(N)n2)c(O)c1	Toxic	8.71 (≈ 28.3 µM)	–	–
COc1ccc(-c2cc(-c3ccc(Cl)cc3)nc(N)n2)c(O)c1	Toxic	21.3 (≈ 65.1 µM)	–	–
COc1ccc(-c2cc(-c3ccc(OC)cc3O)nc(N)n2)cc1	–	1.78 (≈ 5.5 µM)	Toxic	–
COc1ccc(-c2cc(-c3ccc(F)cc3)nc(N)n2)c(O)c1	–	15.2 (≈ 49 µM)	–	Toxic
Nc1nc(-c2ccc(F)cc2)cc(-c2ccc(OCc3ccccc3)cc2O)n1	–	16.7 (≈ 43 µM)	–	Toxic
COc1ccc(O)c(-c2cc(-c3ccccc3Cl)nc(N)n2)c1	–	29.3 (≈ 89.5 µM)	–	Toxic
COc1cccc(-c2cc(-c3cc(OC)ccc3O)nc(N)n2)c1	–	> 25	–	Toxic
COc1ccc(O)c(-c2cc(-c3ccc(F)cc3)nc(N)n2)c1	–	25.5 (≈ 82 µM)	–	Toxic
COc1cccc(-c2cc(-c3ccc(OCc4ccccc4)cc3O)nc(N)n2)c1	Toxic	7.61 (≈ 19.1 µM)	–	–
COc1ccc(O)c(-c2cc(-c3cccc(Cl)c3)nc(N)n2)c1	Toxic	9.53 (≈ 29.1 µM)	–	–
Cc1ccc(-c2cc(-c3ccc(OCc4ccccc4)cc3O)nc(N)n2)cc1	Toxic	14.9 (≈ 38.8 µM)	–	–
Nc1nc(-c2ccc(OCc3ccccc3)cc2O)cc(-c2ccccc2Cl)n1	Toxic	18.9 (≈ 46.7 µM)	–	–
C=C[C@H]1C[N@@]2CC[C@H]1C[C@H]2[C@H](O)c1ccnc2ccc(OC)cc12 [QUININE]	Toxic	29 (≈ 89.4 µM)	–	–
COc1ccc(-c2cc(-c3ccc(OCc4ccccc4)cc3O)nc(N)n2)cc1	Toxic	5.01 (≈ 12.5 µM)	–	–
CCN(CC)CCCC(C)Nc1ccnc2cc(Cl)ccc12 (stereo not drawn) [CHLOROQUINE]	Toxic	–	–	–
COc1ccc(-c2cc(-c3ccc(OCc4ccccc4)cc3O)nc(N)n2)cc1OC	–	1.61 (≈ 3.75 µM)	Toxic	–
Cc1cccc(-c2cc(-c3ccc(OCc4ccccc4)cc3O)nc(N)n2)c1	Toxic	35.6 (≈ 92.7 µM)	–	–
